# Measurements: article PMC7203576 (Frontiers in Microbiology, 2020)
# Values joined by “and” are separate entries in the source; they are usually repeats but may differ in a detail not shown here. Equal entries are not always repeated. Where two headings read alike, the source gives them in different places. Marks after values point to notes of the source that are not given here. Residues, ends and D or L forms follow the SMILES beside them. *: point of attachment. Tridecanoyl(3R-OH,11-Me) = CCC(C)CCCCCCC[C@@H](O)CC(=O)*
# Columns and labels:
# [1] = tested on: Magnaporthe oryzae Triticum (MoT) isolate BTJP 4 (5)
# [2] = tested on: Magnaporthe oryzae Triticum (MoT) on detached wheat leaves cv. BARI Gom 24 (Prodip); conditions: in vivo
# [3] = tested on: Magnaporthe oryzae Triticum (MoT) conidia; conditions: 50 μg/ml
compound,measurement,setting,value
"CC(=O)c1c(O)c(C(C)=O)c(O)c(C(C)=O)c1O [2,4,6-Triacetylphloroglucinol (TAPG 3), 2,4,6-Triacetylphloroglucinol, reference compound]",Activity against MoT,[1],Inactive
"CC(=O)c1c(O)cc(O)c(C(C)=O)c1O [2,4-Diacetylphloroglucinol (DAPG), 2,4-Diacetylphloroglucinol, reference compound]",Activity against MoT,[1],Inactive
"CCCc1c(O)cc(O)c(CCC)c1O [2,4-Dipropylphloroglucinol (DPPG), 2,4-Dipropylphloroglucinol, reference compound]",Activity against MoT,[1],Inactive
"CCCCCCCC/C=C\CCCCCCCc1cc(O)c(C)c(O)c1 [2-Methyl-5-(8Z-heptadecenyl) resorcinol, reference compound]",Activity against MoT,[1],Inactive
"CCCCCCCC/C=C\CCCCCCCc1cc(O)cc(O)c1 [5-(8Z-Heptadecenyl) resorcinol, reference compound]",Activity against MoT,[1],Inactive
"CCCCCC[C@H]1C(=O)O[C@H](C)[C@H](NC(=O)c2cccc(NC=O)c2O)C(=O)O[C@@H](C)[C@@H]1OC(=O)CC(C)C [Antimycin-A, reference compound]",Activity against MoT,[1],Active
"COC1=CC(=O)C(O)=C(CCCCCCC/C=C\CCCCCCCC2=C(O)C(=O)C=C(OC)C2=O)C1=O [Ardisiaquinone A, reference compound]",Activity against MoT,[1],Inactive
"CCC(O)CC1CCC(C(C)C(=O)OC(C)CC2CCC(C(C)C(=O)O)O2)O1 (stereo not drawn) [Bonactin, reference compound]",Activity against MoT,[1],Active
"COc1ccc2c(c[n+](C)c3c4cc5c(cc4ccc23)OCO5)c1OC [Chelerythrine chloride, reference compound]",Activity against MoT,[1],Active
"CC[C@@H](O)C[C@@H]1CC[C@@H](O)[C@@H](C)C(=O)O[C@@H](C)C[C@H]2CC[C@H](O2)[C@H](C)C(=O)O1 [Feigrisolide C, reference compound]",Activity against MoT,[1],Active
"CCC(C)CCCCCCC[C@@H](O)CC(=O)N[C@@H](CC(C)C)C(=O)N[C@@H](CCC(=O)O)C(=O)N[C@@H](CC(C)C)C(=O)N[C@@H](CC(C)C)C(=O)O (stereo partly drawn) [Gageopeptide A] ({Tridecanoyl(3R-OH,11-Me)}-LELL-OH)",Activity against MoT,[1],Active
same,Minimum inhibitory concentration (MIC) on mycelial growth,[1],10.0 μg/disk and 10 μg/disk
same,Morphology of treated hyphae (microscopy),[1],"remarkable increase in branch frequency per unit length of hyphae, reduced polar growth, and irregular swelling of the hyphal tips"
same,Mycelial growth inhibition at the MIC,[1],12.5 ± 1.8%
same,Percent inhibition of radial growth (PIRG) of mycelia,[1],50.5 ± 0.9%
same,Average lesion length of wheat blast on detached leaves,[2],1.5 ± 0.2 mm
same,Germinated conidia (% ± SE),[3]; 0 h,0 ± 0^f %
same,Major morphological change/developmental transitions in the treated conidia,[3]; 0 h,No germination
same,Major morphological change/developmental transitions in the treated conidia,[3]; 6 h,Germinated with a short germ tube
same,Major morphological change/developmental transitions in the treated conidia,[3]; 12 h,Normal germ tube
same,Major morphological change/developmental transitions in the treated conidia,[3]; 24 h,Normal appressoria formed; no mycelial growth took place
same,Conidia with normal germ tube,[3]; after 12 h,31 ± 1.7%
same,Conidia producing normal appressoria,[3]; after 24 h,27 ± 1.5%
same,Inhibition of mycelial growth from germinated conidia,[3]; 24 h,100%
"C[C@@H]1CCC/C=C/C=C/[C@H](O)C[C@@H](O)C/C=C\C=C\[C@@H](O)C/C=C/C=C\C(=O)O1 [Macrolactin A, reference compound]",Activity against MoT,[1],Inactive
"C[C@H]1CCC/C=C\C=C\[C@H](O)C[C@@H](O)C/C=C\C=C\[C@@H](OC(=O)CCC(=O)O[C@H]2O[C@@H](CO)[C@H](O)[C@@H](O)[C@@H]2O)C/C=C/C=C\C(=O)O1 [Macrolactin W, reference compound]",Activity against MoT,[1],Inactive
"CC(=O)c1c(O)cc(O)cc1O [Monoacetylphloroglucinol (MAPG), Monoacetylphloroglucinol, reference compound]",Activity against MoT,[1],Inactive
"C[C@@H]1C/C=C/C=C/C=C/C=C/[C@H](O[C@@H]2O[C@H](C)[C@@H](O)[C@H](N)[C@@H]2O)C[C@@H]2O[C@](O)(C[C@@H](O)C[C@H]3O[C@@H]3/C=C/C(=O)O1)C[C@H](O)[C@H]2C(=O)O [Natamycin, reference compound]",Activity against MoT,[1],Inactive
"CC[C@H]1/C=C/C=C/C[C@@H](C)[C@H](O)[C@@](C)(O)C(=O)[C@@H](C)[C@H](O)[C@@H](C)C(=O)[C@@H](C)[C@H](O)[C@@H](C)/C=C/C(=O)O[C@@H]2[C@H](C)[C@H](CC1)O[C@@]1(O[C@@H](C[C@@H](C)O)[C@@H](C)CC1=O)[C@H]2C [Oligomycin B, reference compound]",Activity against MoT,[1],Active
"CC1(C)S[C@@H]2[C@H](NC(=O)Cc3ccccc3)C(=O)N2[C@H]1C(=O)O [Penicillin G, reference compound]",Activity against MoT,[1],Inactive
"Oc1cc(O)cc(O)c1 [Phloroglucinol (PG), Phloroglucinol, reference compound]",Activity against MoT,[1],Inactive
"CN[C@@H]1C[C@H]2O[C@@](C)([C@@H]1OC)n1c3ccccc3c3c4c(c5c6ccccc6n2c5c31)C(=O)NC4 [Staurosporine, reference compound]",Activity against MoT,[1],Active
Gageopeptide B,Activity against MoT,[1],Active
same,Minimum inhibitory concentration (MIC) on mycelial growth,[1],10.0 μg/disk and 10 μg/disk
same,Morphology of treated hyphae (microscopy),[1],"swelling of hyphal cells, hyper-branching, loss of apical growth, and swelling of hyphal tips"
same,Mycelial growth inhibition at the MIC,[1],11.5 ± 1.6%
same,Percent inhibition of radial growth (PIRG) of mycelia,[1],54.3 ± 3.3%
same,Average lesion length of wheat blast on detached leaves,[2],1.6 ± 0.2 mm
same,Germinated conidia (% ± SE),[3]; 0 h,0 ± 0^f %
same,Major morphological change/developmental transitions in the treated conidia,[3]; 0 h,No germination
same,Major morphological change/developmental transitions in the treated conidia,[3]; 6 h,Germinated with a short germ tube
same,Major morphological change/developmental transitions in the treated conidia,[3]; 12 h,Deformed germ tube (swollen)
same,Major morphological change/developmental transitions in the treated conidia,[3]; 24 h,No appressoria formed; no mycelial growth took place
same,Conidia with abnormally swollen (deformed) germ tubes,[3]; after 12 h,51 ± 2.1%
Gageopeptide C,Activity against MoT,[1],Active
same,Minimum inhibitory concentration (MIC) on mycelial growth,[1],2.5 μg/disk
same,Morphology of treated hyphae (microscopy),[1],"extensive branching, irregular growth, and swelling in MoT hyphae"
same,Mycelial growth inhibition at the MIC,[1],42.9 ± 1.6%
same,Percent inhibition of radial growth (PIRG) of mycelia,[1],58.1 ± 0.9% and 54.3 ± 1.6% and 49.5 ± 0.9%
same,Average lesion length of wheat blast on detached leaves,[2],1.8 ± 0.1 mm
same,Germinated conidia (% ± SE),[3]; 0 h,0 ± 0^f %
same,Major morphological change/developmental transitions in the treated conidia,[3]; 0 h,No germination
same,Major morphological change/developmental transitions in the treated conidia,[3]; 6 h,Germinated with a short germ tube
same,Major morphological change/developmental transitions in the treated conidia,[3]; 12 h,Deformed germ tube (swollen)
same,Major morphological change/developmental transitions in the treated conidia,[3]; 24 h,30% Normal appressoria and 11% abnormal appressoria (low melanization) formed but no mycelial growth took place
same,Conidia with abnormally swollen (deformed) germ tubes,[3]; after 12 h,10 ± 1.5%
same,Conidia producing abnormal appressoria (low melanization),[3]; after 24 h,11 ± 0.7% and 11%
same,Conidia producing normal appressoria,[3]; after 24 h,30 ± 0.7% and 30%
Gageopeptide D,Activity against MoT,[1],Active
same,Minimum inhibitory concentration (MIC) on mycelial growth,[1],2.5 μg/disk
same,Morphology of treated hyphae (microscopy),[1],disruption of normal polar growth of hyphae by inducing excessive branching and swelling of hyphal tips
same,Mycelial growth inhibition at the MIC,[1],20 ± 1.7%
same,Percent inhibition of radial growth (PIRG) of mycelia,[1],45.7 ± 1.6% and 30.5 ± 0.9% and 27.6 ± 0.9%
same,Average lesion length of wheat blast on detached leaves,[2],1.8 ± 0.1 mm
same,Germinated conidia (% ± SE),[3]; 0 h,0 ± 0^f %
same,Major morphological change/developmental transitions in the treated conidia,[3]; 0 h,No germination
same,Major morphological change/developmental transitions in the treated conidia,[3]; 6 h,Germinated with a short germ tube
same,Major morphological change/developmental transitions in the treated conidia,[3]; 12 h,Deformed germ tube (swollen)
same,Major morphological change/developmental transitions in the treated conidia,[3]; 24 h,No appressoria formed; no mycelial growth took place
same,Conidia with abnormally swollen (deformed) germ tubes,[3]; after 12 h,25 ± 1.7%
Gageostatin A [reference compound],Activity against MoT,[1],Inactive
Gageostatin B [reference compound],Activity against MoT,[1],Inactive
Gageostatin C [reference compound],Activity against MoT,[1],Inactive
Gageotetrin A [reference compound],Activity against MoT,[1],Inactive
Gageotetrin B,Activity against MoT,[1],Active
same,Minimum inhibitory concentration (MIC) on mycelial growth,[1],1.5 μg/disk
same,Morphology of treated hyphae (microscopy),[1],"coarse, loss of radial growth, and irregular swelling on the tips"
same,Mycelial growth inhibition at the MIC,[1],22.9 ± 1.6%
same,Percent inhibition of radial growth (PIRG) of mycelia,[1],60.9 ± 2.5% and 59 ± 0.9% and 51.4 ± 1.7%
same,Average lesion length of wheat blast on detached leaves,[2],1.5 ± 0.1 mm
same,Germinated conidia (% ± SE),[3]; 0 h,0 ± 0^f %
same,Major morphological change/developmental transitions in the treated conidia,[3]; 0 h,No germination
same,Major morphological change/developmental transitions in the treated conidia,[3]; 6 h,Germinated with a short germ tube
same,Major morphological change/developmental transitions in the treated conidia,[3]; 12 h,Deformed germ tube (swollen)
same,Major morphological change/developmental transitions in the treated conidia,[3]; 24 h,Abnormal appressoria formed; no mycelial growth took place
same,Conidia with abnormally swollen (deformed) germ tubes,[3]; after 12 h,41 ± 3.8%
Gageotetrin C [reference compound],Activity against MoT,[1],Inactive
Macrolactin B [reference compound],Activity against MoT,[1],Active
Neomycin [reference compound],Activity against MoT,[1],Active
Oligomycin F [reference compound],Activity against MoT,[1],Active
